From PMC8842224 (Journal of Medicinal Chemistry, 2022)
Values after ≈ are worked out from the molar mass of the structure shown. Where two headings read alike, the source gives them in different places. Marks after values point to notes of the source that are not given here.

Key:
human A1AR [1] = molecular target: T1, human A1AR (Homo sapiens, UniProt P30542); details: for Ki: read-out: hA1 Ki, displacement of specific [3H]DPCPX binding, human CHO cells, ± SEM, n = 3; for Exp absolute binding affinity (ΔGbind): experimental, A1AR
T1 sequence (P30542 1-326): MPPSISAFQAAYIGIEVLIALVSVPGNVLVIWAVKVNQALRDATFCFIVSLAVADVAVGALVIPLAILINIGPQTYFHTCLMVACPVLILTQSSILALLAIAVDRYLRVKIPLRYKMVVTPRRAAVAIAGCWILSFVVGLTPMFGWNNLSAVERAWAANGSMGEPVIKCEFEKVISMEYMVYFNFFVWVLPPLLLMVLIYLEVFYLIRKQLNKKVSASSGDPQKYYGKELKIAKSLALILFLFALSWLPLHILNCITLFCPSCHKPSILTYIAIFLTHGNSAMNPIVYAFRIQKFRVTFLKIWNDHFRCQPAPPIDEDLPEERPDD

human A2AAR = human A2AAR (Homo sapiens, UniProt P29274)
human A2BAR [2] = molecular target: T2, human A2BAR (Homo sapiens, UniProt P29275); assay: biochemical; details: read-out: hA2B percentage displacement of specific binding at 1 μM
T2 sequence (P29275 1-332): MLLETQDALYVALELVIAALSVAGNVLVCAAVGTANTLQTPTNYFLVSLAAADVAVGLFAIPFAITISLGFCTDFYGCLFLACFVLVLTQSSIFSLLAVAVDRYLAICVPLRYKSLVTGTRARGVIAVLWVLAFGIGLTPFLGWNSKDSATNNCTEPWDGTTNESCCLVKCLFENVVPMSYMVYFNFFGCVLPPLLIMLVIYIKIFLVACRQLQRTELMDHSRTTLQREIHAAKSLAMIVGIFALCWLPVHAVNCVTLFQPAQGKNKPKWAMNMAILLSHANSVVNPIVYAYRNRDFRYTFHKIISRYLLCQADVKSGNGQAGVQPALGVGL

hA2A = hA2A (Homo sapiens, UniProt P29274); assay: cAMP functional assay, inhibition of NECA effect; assay type: cell-based; details: read-out: hA2A % Inhib. NECA (1 μM)
hA2B = molecular target: T3, hA2B (Homo sapiens, UniProt P29275); assay: cAMP functional assay, inhibition of NECA effect; assay type: cell-based; details: read-out: hA2B % Inhib. NECA (1 μM)
T3 sequence (P29275 1-332): T2 sequence (P29275 1-332)

hA3 = molecular target: T4, hA3 (Homo sapiens, UniProt P0DMS8); assay: cAMP functional assay, inhibition of NECA effect; assay type: cell-based; details: read-out: hA3 % Inhib. NECA (1 μM)
T4 sequence (P0DMS8 1-318): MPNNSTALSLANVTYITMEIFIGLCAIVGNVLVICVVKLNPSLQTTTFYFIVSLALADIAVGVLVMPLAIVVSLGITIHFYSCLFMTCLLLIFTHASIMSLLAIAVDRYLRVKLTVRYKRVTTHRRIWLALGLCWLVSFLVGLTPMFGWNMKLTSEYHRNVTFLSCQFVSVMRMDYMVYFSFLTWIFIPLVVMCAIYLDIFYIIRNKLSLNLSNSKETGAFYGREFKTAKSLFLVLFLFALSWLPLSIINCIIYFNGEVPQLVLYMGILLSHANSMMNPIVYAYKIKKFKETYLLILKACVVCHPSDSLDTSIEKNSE

P-glycoprotein (P-gp) = P-glycoprotein (P-gp) (Homo sapiens, UniProt P08183); details: MDCK-MDR1 cells, NA = not active
in vitro = details: human, microsomes, pH 7.4
[3] = Aqueous solubility by nephelometry in PBS; details: pH 7.4
hA1ARs = molecular target: T5, hA1ARs (Homo sapiens, UniProt P30542); details: NECA 100 nM, forskolin 3 μM
T5 sequence (P30542 1-326): T1 sequence (P30542 1-326)

human A2BAR [4] = molecular target: T2, human A2BAR; details: read-out: hA2B Ki; displacement of specific [3H]DPCPX binding, human HEK-293 cells, ± SEM, n = 3
A3 = details: printed in Figure 2; cited from earlier work
human A1AR [5] = molecular target: T1, human A1AR; assay: biochemical
[6] = human microsomes
A2A = details: cited from earlier work
A1 = details: cited from earlier work
[7] = read-out: hA2A Ki, displacement of specific [3H]ZM241385 binding, human HeLa cells, ± SEM, n = 3
[8] = read-out: ki_a2a, supplementary csv, unit inferred

human A2AAR, sequence (P29274 whole entry): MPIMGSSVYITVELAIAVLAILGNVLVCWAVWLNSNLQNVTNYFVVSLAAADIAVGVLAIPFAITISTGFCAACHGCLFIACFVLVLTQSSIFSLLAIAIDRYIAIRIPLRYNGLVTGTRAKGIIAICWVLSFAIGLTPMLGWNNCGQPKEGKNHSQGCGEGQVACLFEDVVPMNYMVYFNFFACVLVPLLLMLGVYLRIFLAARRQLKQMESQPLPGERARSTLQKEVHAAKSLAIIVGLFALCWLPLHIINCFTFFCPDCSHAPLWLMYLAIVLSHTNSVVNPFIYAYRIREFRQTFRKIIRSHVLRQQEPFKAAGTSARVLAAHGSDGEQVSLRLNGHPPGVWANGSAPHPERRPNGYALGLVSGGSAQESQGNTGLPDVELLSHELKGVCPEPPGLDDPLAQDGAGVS
hA2A, sequence (P29274 whole entry): as above
P-glycoprotein (P-gp), sequence (P08183 whole entry): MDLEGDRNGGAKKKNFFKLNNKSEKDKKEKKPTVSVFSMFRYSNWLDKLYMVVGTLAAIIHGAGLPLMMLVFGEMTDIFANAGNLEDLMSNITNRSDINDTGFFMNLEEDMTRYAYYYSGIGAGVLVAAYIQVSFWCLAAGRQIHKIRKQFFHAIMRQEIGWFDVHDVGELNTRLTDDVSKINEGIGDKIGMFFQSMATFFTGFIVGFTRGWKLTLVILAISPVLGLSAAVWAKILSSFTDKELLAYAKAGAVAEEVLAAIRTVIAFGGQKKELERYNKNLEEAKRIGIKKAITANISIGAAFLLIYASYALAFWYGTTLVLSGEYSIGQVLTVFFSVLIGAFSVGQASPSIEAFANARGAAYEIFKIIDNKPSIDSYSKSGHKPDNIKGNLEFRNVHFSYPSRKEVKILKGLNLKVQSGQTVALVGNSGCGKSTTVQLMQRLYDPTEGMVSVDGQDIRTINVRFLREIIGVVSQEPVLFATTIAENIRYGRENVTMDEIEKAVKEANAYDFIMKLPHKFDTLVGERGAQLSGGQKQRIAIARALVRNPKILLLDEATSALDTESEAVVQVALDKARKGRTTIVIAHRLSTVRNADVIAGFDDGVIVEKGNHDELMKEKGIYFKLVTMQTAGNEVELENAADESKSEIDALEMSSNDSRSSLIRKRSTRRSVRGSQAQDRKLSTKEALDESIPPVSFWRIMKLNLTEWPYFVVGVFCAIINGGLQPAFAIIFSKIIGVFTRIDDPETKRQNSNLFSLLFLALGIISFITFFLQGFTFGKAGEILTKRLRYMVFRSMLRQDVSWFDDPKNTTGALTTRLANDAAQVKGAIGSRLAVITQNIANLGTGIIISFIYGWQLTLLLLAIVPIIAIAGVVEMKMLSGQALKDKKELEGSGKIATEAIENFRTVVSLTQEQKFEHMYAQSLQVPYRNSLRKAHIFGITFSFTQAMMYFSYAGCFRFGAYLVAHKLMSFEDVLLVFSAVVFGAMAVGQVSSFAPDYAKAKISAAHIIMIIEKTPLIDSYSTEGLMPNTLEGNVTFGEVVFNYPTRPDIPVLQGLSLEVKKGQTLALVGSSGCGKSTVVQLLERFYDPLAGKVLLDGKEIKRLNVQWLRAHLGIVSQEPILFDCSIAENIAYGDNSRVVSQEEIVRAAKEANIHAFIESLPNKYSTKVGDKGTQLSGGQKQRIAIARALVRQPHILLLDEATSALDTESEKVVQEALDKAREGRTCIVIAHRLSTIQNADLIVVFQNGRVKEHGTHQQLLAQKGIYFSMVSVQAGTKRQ

Row | SMILES | Ki (human A1AR [1]) [nM] | Ki (human A2AAR; [7]) [nM] | Ki (human A2BAR [4]) [nM] | further results
1 | CCNc1nc(-c2ccccc2)c(C#N)c(-c2cccnc2)n1 [19be] | 11.8 ± 3.5 | 335 ± 18 | – | inhibition at 1 µM (human A2BAR [2]): 1%
2 | CNc1nc(-c2ccccc2)c(C#N)c(-c2ccc3c(c2)OCO3)n1 [19ao] | – | – | – | inhibition at 1 µM (hA2A): 18%; inhibition at 1 µM (hA2B): 1%; inhibition at 1 µM (hA3): 5%; Calcein-AM transport inhibition at 100 μM (P-glycoprotein (P-gp)): 59% ^a; half-life (in vitro): 15.2 min; solubility at 2 h [3]: 5.4 µM (≈ 1.78 µg/mL)
3 | CCCn1c(=O)c2[nH]c(-c3ccc(OCC(=O)NCCN)cc3)nc2n(CCC)c1=O [XAC] | – | – | – | functional behaviour at hA1ARs (cAMP) (hA1ARs): reverse the inhibitory effect of NECA on FSK-induced cAMP accumulation
4 | N#Cc1c(-c2ccccc2)nc(N)nc1-c1cccs1 [18y] | 17.3 ± 4.4 | 24.9 ± 4.6 | 40.6 ± 3.7 | –
5 | Nc1cc(-c2ccc3c(c2)OCO3)nc(-c2ccccc2)n1 [15b] | – | – | – | A3 (1μM) (A3): 15%
6 | CCNc1nc(-c2ccccc2)c(C#N)c(-c2cccc(C#N)c2)n1 [19t] | 2.46 ± 0.18 | 155 ± 21 | 14.2 ± 3.8 | –
7 | N#Cc1c(-c2ccccc2)nc(N)nc1-c1cccc(F)c1 [18e] | 13.4 ± 4.1 | 19.5 ± 3.3 | 186 ± 11 | –
8 | CNc1nc(-c2ccccc2)c(C#N)c(-c2ccc(F)cc2F)n1 [19af] | 22.6 ± 7 | – | – | Exp absolute binding affinity (ΔGbind) (human A1AR [1]): -10.42 kcal/mol; Calcein-AM transport inhibition at 100 μM (P-glycoprotein (P-gp)): 44% ^a; Ki (human A1AR [5]): < 50 nM
9 | N#Cc1c(-c2ccc(F)cc2)nc(N)nc1-c1ccco1 [18am] | 9.08 ± 1.16 | 5.72 ± 0.26 | 13.9 ± 3.7 | –
10 | N#Cc1c(-c2ccccc2)nc(N)nc1-c1cccc(Cl)c1 [18f] | 4.25 ± 1.1 | 15.5 ± 2.4 | 177 ± 13 | –
11 | N#Cc1c(-c2ccccc2)nc(Nc2ccccc2)nc1-c1ccccc1F [19e] | 6.25 ± 1.02 | 52.5 ± 6.2 | 107 ± 10 | –
12 | N#Cc1c(-c2cccc(Cl)c2)nc(N)nc1-c1cccc(Cl)c1 [18ah] | 4.82 ± 0.37 | 35.3 ± 7.7 | 73.6 ± 6.8 | –
13 | CNc1nc(-c2ccccc2)c(C#N)c(-c2cc(OC)cc(OC)c2)n1 [19am] | 11 ± 0.8 | 11.5 ± 4.7 | 60 ± 5.1 | Exp relative binding affinity (ΔΔGbind) (human A1AR [1]; Lig 2 relative to Lig 1 = 19a): 0,11 kcal/mol; Exp relative binding affinity (ΔΔGbind) (human A1AR [1]; Lig 2 relative to Lig 1 = 19ab): -0.98 kcal/mol; Exp absolute binding affinity (ΔGbind) (human A1AR [1]): -10.85 kcal/mol
14 | CNc1nc(-c2ccccc2)c(C#N)c(-c2cccnc2)n1 [19bd] | 19.3 ± 7.1 | – | – | A1AR selectivity (human A1AR [1]): > 1000 fold; Exp relative binding affinity (ΔΔGbind) (human A1AR [1]; Lig 2 relative to Lig 1 = 19a): 0.44 kcal/mol; Exp relative binding affinity (ΔΔGbind) (human A1AR [1]; Lig 2 relative to Lig 1 = 19bb): -0.64 kcal/mol; Exp absolute binding affinity (ΔGbind) (human A1AR [1]): -10.52 kcal/mol; Ki (human A1AR [5]): < 50 nM
15 | C[C@]12CC[C@H]3[C@@H](CCC4=CC(=O)CC[C@@]43C)[C@@H]1CC[C@@H]2O [Testosterone, reference compound] | – | – | – | % Remanent (sampling time 60 min) [6]: 8.77%; half-life (in vitro): 17.1 min; microsomal CLint (in vitro): 27.8 µL/min/mg
16 | N#Cc1c(-c2cccc(Cl)c2)nc(N)nc1-c1ccc2c(c1)OCO2 [18aj] | 5.61 ± 0.74 | 101 ± 15 | 386 ± 15 | Ki (human A2AAR; [8]): 102 nM
17 | CNc1nc(-c2ccccc2)c(C#N)c(-c2cccc(Cl)c2)n1 [19l] | – | – | – | inhibition at 1 µM (hA2A): 16%; inhibition at 1 µM (hA2B): 11%; inhibition at 1 µM (hA3): 9%; half-life (in vitro): 6.24 min; solubility at 2 h [3]: 75.4 µM (≈ 24.2 µg/mL)
18 | CNc1nc(-c2ccccc2)c(C#N)c(-c2ccsc2)n1 [19az] | 42.8 ± 3.7 | – | – | A1AR selectivity (human A1AR [1]): > 1000 fold; Exp relative binding affinity (ΔΔGbind) (human A1AR [1]; Lig 2 relative to Lig 1 = 19a): 0.91 kcal/mol; Exp relative binding affinity (ΔΔGbind) (human A1AR [1]; Lig 2 relative to Lig 1 = 19bb): -0.17 kcal/mol; Exp absolute binding affinity (ΔGbind) (human A1AR [1]): -10.05 kcal/mol; Ki (human A1AR [5]): < 50 nM
19 | N#Cc1c(-c2ccccc2)nc(Nc2ccccc2)nc1-c1ccc2c(c1)OCO2 [19aq] | 11.4 ± 3.7 | 28 ± 9.6 | 188 ± 23 | –
20 | N#Cc1c(NC(=O)C2CCCC2)nc(-c2ccccc2)nc1-c1ccc2c(c1)OCO2 [15c] | – | – | – | A2A (1μM) (A2A): 14%; A3 (1μM) (A3): 27%
21 | CNc1nc(-c2ccccc2)c(C#N)c(-c2ccc(O)cc2)n1 [19z] | 44.6 ± 3.2 | – | – | A1AR selectivity (human A1AR [1]): > 1000 fold; Exp relative binding affinity (ΔΔGbind) (human A1AR [1]; Lig 2 relative to Lig 1 = 19a): 0.94 kcal/mol; Exp relative binding affinity (ΔΔGbind) (human A1AR [1]; Lig 2 relative to Lig 1 = 19ad): 0.28 kcal/mol; Exp absolute binding affinity (ΔGbind) (human A1AR [1]): -10.02 kcal/mol; Ki (human A1AR [5]): < 50 nM
22 | COc1cc(OC)cc(-c2nc(N)nc(-c3ccccc3)c2C#N)c1 [18t] | 2.58 ± 0.67 | 1.73 ± 0.33 | 45.1 ± 3.7 | –
23 | CNc1nc(-c2ccccc2)c(C#N)c(-c2ccc(F)cc2)n1 [19v] | – | – | – | inhibition at 1 µM (hA2A): 25%; inhibition at 1 µM (hA3): 5%; half-life (in vitro): 18.6 min; solubility at 2 h [3]: 18 µM (≈ 5.48 µg/mL)
24 | CNc1nc(-c2ccccc2)c(C#N)c(-c2cc(Cl)cc(Cl)c2)n1 [19aj] | 27 ± 3.6 | – | – | Exp absolute binding affinity (ΔGbind) (human A1AR [1]): -10.32 kcal/mol; Ki (human A1AR [5]): < 50 nM
25 | N#Cc1c(-c2ccccc2)nc(N)nc1-c1cccc(O)c1 [18h] | 1.49 ± 0.43 | 10.2 ± 3.52 | 50.1 ± 8.2 | –
26 | Nc1nc(-c2ccccc2)cc(-c2ccccc2)n1 [17a] | – | – | – | Ki (A1): 17.7 nM
27 | N#Cc1c(-c2ccccc2)nc(Nc2ccccc2)nc1-c1ccco1 [19au] | 33.7 ± 7.3 | 2.15 ± 0.11 | 14.7 ± 4.9 | –
28 | CCNc1nc(-c2ccccc2)c(C#N)c(-c2ccc3c(c2)OCO3)n1 [19ap] | 6.7 ± 0.67 | 894 ± 42 | 217 ± 18 | Ki (human A2AAR; [8]): 895 nM
29 | N#Cc1c(-c2ccccc2)nc(N)nc1-c1ccco1 [18x] | 9.7 ± 1.2 | 10.1 ± 3.7 | 21.8 ± 2.7 | –
